These results are taken from ChEMBL document CHEMBL1123630, “Stereospecificity in allergic contact dermatitis to simple substituted methylene lactone derivatives” (1987).

What all share (type): functional
Experiment [1] is filed under the species Cavia porcellus. Kind of experiment: Evaluated for the open epicutaneous test and no. of animals showing erythema and swelling(2) by (+)4,5-Dimethyl-3-methylene-dihydro-furan-2-one sensitization in guinea pigs.
The species entered for experiment [2] is Cavia porcellus. Kind of experiment: Evaluated for the open epicutaneous test and no. of animals showing erythema and swelling(2) by (-)4,5-Dimethyl-3-methylene-dihydro-furan-2-one sensitization in guinea pigs.
The species entered for experiment [3] is Cavia porcellus. Kind of experiment: Evaluated for the open epicutaneous test and no. of animals showing erythema covering part (0.5) by (+)4,5-Dimethyl-3-methylene-dihydro-furan-2-one sensitization in guinea pigs.
The species entered for experiment [4] is Cavia porcellus. Nature of the experiment: Evaluated for the open epicutaneous test and no. of animals showing erythema covering part (0.5) by (-)4,5-Dimethyl-3-methylene-dihydro-furan-2-one sensitization in guinea pigs.
The species entered for experiment [5] is Cavia porcellus. Kind of experiment: Evaluated for the open epicutaneous test and no. of animals showing erythema covering the whole (1) by (+)4,5-Dimethyl-3-methylene-dihydro-furan-2-one sensitization in guinea pigs.
Experiment [6] is filed under the species Cavia porcellus. Kind of experiment: Evaluated for the open epicutaneous test and no. of animals showing erythema covering the whole (1) by (-)4,5-Dimethyl-3-methylene-dihydro-furan-2-one sensitization in guinea pigs.
For experiment [7], the species on record is Cavia porcellus. Nature of the experiment: Evaluated for the open epicutaneous test and no. of animals showing no reaction (0) by (+)4,5-Dimethyl-3-methylene-dihydro-furan-2-one sensitization in guinea pigs.
Experiment [8] is filed under the species Cavia porcellus. Nature of the experiment: Evaluated for the open epicutaneous test and no. of animals showing no reaction (0) by (-)4,5-Dimethyl-3-methylene-dihydro-furan-2-one sensitization in guinea pigs.
For experiment [9], the species on record is Cavia porcellus. Kind of experiment: Number of positive animals showing sensitization to (+)4,5-Dimethyl-3-methylene-dihydro-furan-2-one in 8 guinea pigs was determined by open epicutaneous test for the compound.
The species entered for experiment [10] is Cavia porcellus. Kind of experiment: Number of positive animals showing sensitization to (-)4,5-Dimethyl-3-methylene-dihydro-furan-2-one in 8 guinea pigs was determined by open epicutaneous test for the compound.
The species entered for experiment [11] is Cavia porcellus. Kind of experiment: Mean reaction by (-)4,5-Dimethyl-3-methylene-dihydro-furan-2-one sensitization in guinea pigs was determined by open epicutaneous test fo the compound.
Experiment [12] is filed under the species Cavia porcellus. Kind of experiment: Mean reaction by (+)4,5-Dimethyl-3-methylene-dihydro-furan-2-one sensitization in guinea pigs was determined by open epicutaneous test fo the compound.
The species entered for experiment [13] is Cavia porcellus. Kind of experiment: Number of positive animals showing sensitization to (-)4-Methyl-3-methylene-dihydro-furan-2-one in 6 guinea pigs was determined by open epicutaneous test for the compound.
The species entered for experiment [14] is Cavia porcellus. Nature of the experiment: Evaluated for the open epicutaneous test and no. of animals showing erythema and swelling(2) by (+)4-Methyl-3-methylene-dihydro-furan-2-one sensitization in guinea pigs.
For experiment [15], the species on record is Cavia porcellus. Nature of the experiment: Evaluated for the open epicutaneous test and no. of animals showing erythema and swelling(2) by (-)4-Methyl-3-methylene-dihydro-furan-2-one sensitization in guinea pigs.
Experiment [16] is filed under the species Cavia porcellus. Kind of experiment: Evaluated for the open epicutaneous test and no. of animals showing erythema covering part (0.5) by (-)4-Methyl-3-methylene-dihydro-furan-2-one sensitization in guinea pigs.
Experiment [17] is filed under the species Cavia porcellus. Nature of the experiment: Evaluated for the open epicutaneous test and no. of animals showing erythema covering the whole (1) by (-)4-Methyl-3-methylene-dihydro-furan-2-one sensitization in guinea pigs.
The species named for experiment [18] is Cavia porcellus. Nature of the experiment: Evaluated for the open epicutaneous test and no. of animals showing no reaction (0) by (+)4-Methyl-3-methylene-dihydro-furan-2-one sensitization in guinea pigs.
Experiment [19] is filed under the species Cavia porcellus. Kind of experiment: Number of positive animals showing sensitization to (+)4-Methyl-3-methylene-dihydro-furan-2-one in 6 guinea pigs was determined by open epicutaneous test for the compound.
The species entered for experiment [20] is Cavia porcellus. Kind of experiment: Mean reaction by (-)4-Methyl-3-methylene-dihydro-furan-2-one sensitization in guinea pigs was determined by open epicutaneous test fo the compound.
For experiment [21], the species on record is Cavia porcellus. Kind of experiment: Evaluated for the open epicutaneous test and no. of animals showing erythema covering part (0.5) by (+)4-Methyl-3-methylene-dihydro-furan-2-one sensitization in guinea pigs.
The species named for experiment [22] is Cavia porcellus. Nature of the experiment: Evaluated for the open epicutaneous test and no. of animals showing erythema covering the whole (1) by (+)4-Methyl-3-methylene-dihydro-furan-2-one sensitization in guinea pigs.
Experiment [23] is filed under the species Cavia porcellus. Kind of experiment: Number of positive animals showing sensitization to (-)4-Methyl-3-methylene-dihydro-furan-2-one in 7 guinea pigs was determined by open epicutaneous test for the compound.
The species entered for experiment [24] is Cavia porcellus. Nature of the experiment: Evaluated for the open epicutaneous test and no. of animals showing no reaction (0) by (-)4-Methyl-3-methylene-dihydro-furan-2-one sensitization in guinea pigs.
For experiment [25], the species on record is Cavia porcellus. Kind of experiment: Number of positive animals showing sensitization to (+)4-Methyl-3-methylene-dihydro-furan-2-one in 3 guinea pigs was determined by open epicutaneous test for the compound.
The species entered for experiment [26] is Cavia porcellus. Nature of the experiment: Mean reaction by (+)4-Methyl-3-methylene-dihydro-furan-2-one sensitization in guinea pigs was determined by open epicutaneous test fo the compound.

Consider `C=C1C(=O)O[C@H](C)[C@H]1C`, for which the No. of animals in the experiment filed under Cavia porcellus [1] turned out to be 0; in the experiment filed under Cavia porcellus [2] it was 0; in the experiment filed under Cavia porcellus [3], 5; in the experiment listed under Cavia porcellus [4] it was 2; in the experiment filed under Cavia porcellus [5] it was 1; in the experiment filed under Cavia porcellus [6], 3. For the same compound, the figures for the No. of animals in the experiment listed under Cavia porcellus [7] and in the experiment filed under Cavia porcellus [8] were 2 and 3, respectively. Also, the “No. of positive animals” value in the experiment listed under Cavia porcellus [9] is on record as 6; in the experiment listed under Cavia porcellus [10], 5. Besides, the Mean reaction amounted to 0.5 in the experiment listed under Cavia porcellus [11] and 0.4 in the experiment filed under Cavia porcellus [12].
As for `C=C1C(=O)O[C@@H](C)[C@@H]1C`, the No. of animals in the experiment filed under Cavia porcellus [1] turned out to be 0; in the experiment filed under Cavia porcellus [2], 0; in the experiment listed under Cavia porcellus [3] it was 0; in the experiment filed under Cavia porcellus [4] it was 3; in the experiment listed under Cavia porcellus [5] it was 0; in the experiment listed under Cavia porcellus [6], 5. The results for the No. of animals in the experiment filed under Cavia porcellus [7] and in the experiment filed under Cavia porcellus [8] were 8 and 0, respectively. For the same compound, the “No. of positive animals” value in the experiment filed under Cavia porcellus [9] worked out at 0; in the experiment filed under Cavia porcellus [10], 8. Further, the Mean reaction in the experiment filed under Cavia porcellus [11] worked out at 0.8; in the experiment listed under Cavia porcellus [12], 0.
With `C=C1C(=O)OC[C@H]1C`, the “No. of positive animals” value in the experiment filed under Cavia porcellus [13] is 0; in the experiment filed under Cavia porcellus [19] it was 6. The No. of animals in the experiment filed under Cavia porcellus [14] is reported as 0; in the experiment listed under Cavia porcellus [15] it was 0; in the experiment listed under Cavia porcellus [16], 0; in the experiment listed under Cavia porcellus [17], 0; in the experiment filed under Cavia porcellus [18], 0; in the experiment filed under Cavia porcellus [8] it was 6. The results for the No. of animals in the experiment filed under Cavia porcellus [21] and in the experiment filed under Cavia porcellus [22] were 1 and 5, respectively. The Mean reaction in the experiment listed under Cavia porcellus [20] is reported as 0; in the experiment filed under Cavia porcellus [12], 0.9.
`C=C1C(=O)OC[C@@H]1C`: the “No. of positive animals” value in the experiment listed under Cavia porcellus [23] came to 7; in the experiment filed under Cavia porcellus [25], 3. The No. of animals in the experiment filed under Cavia porcellus [14] worked out at 0; in the experiment filed under Cavia porcellus [15] it was 5; in the experiment filed under Cavia porcellus [16] it was 0; in the experiment listed under Cavia porcellus [17], 2; in the experiment filed under Cavia porcellus [18] it was 4; in the experiment listed under Cavia porcellus [24], 0. Moreover, the No. of animals came to 3 in the experiment listed under Cavia porcellus [21] and 0 in the experiment filed under Cavia porcellus [22]. Besides, the Mean reaction in the experiment listed under Cavia porcellus [20] came to 1.7; in the experiment filed under Cavia porcellus [26], 0.2.
